Common to all, as to assay type: functional
The test system of test [1] is Staphylococcus aureus. Kind of test: Antibacterial activity against methicillin-resistant Staphylococcus aureus OM481.
For test [2], the system named is Staphylococcus aureus. Kind of test: Antibacterial activity against methicillin-resistant Staphylococcus aureus OM584.
The subject of the next test is P388. Kind of test: Antitumor activity against mouse P388 cells implanted in CD2F1 mouse assessed as tumor growth inhibition at 6.25 mg/kg, ip relative to control.

The results in this text go back to ChEMBL document CHEMBL3632580, “Structure-activity relationship of indoloquinoline analogs anti-MRSA” (2015).

≈ marks a conversion by molar mass, not a printed value. Bounds are passed on as bounds.

By MIC is commonly meant the smallest concentration in the dilution series that meets the test's criterion for growth inhibition. Read a high MIC as a need for much substance. On to `COc1cc(O)ccc1Nc1c2ccccc2nc2c1[nH]c1ccccc12`, for which the values for the MIC against Staphylococcus aureus [1] and in the test on Staphylococcus aureus [2] were 8 µg/mL (≈ 22.5 µM) and 16 µg/mL (≈ 45 µM), respectively.

Turning to `c1ccc(Nc2c3ccccc3nc3c2[nH]c2ccccc23)cc1`, the MIC stood at 8 µg/mL (≈ 25.9 µM) against Staphylococcus aureus [1] and 4 µg/mL (≈ 12.9 µM) in the test with Staphylococcus aureus [2].

On to `Cl.Oc1ccccc1Nc1c2ccccc2nc2c1[nH]c1ccccc12`, for which the MIC against Staphylococcus aureus [1] and in the test on Staphylococcus aureus [2] was 16 µg/mL in each case.

For `Oc1cccc(Nc2c3ccccc3nc3c2[nH]c2ccccc23)c1`, the MIC against Staphylococcus aureus [1] came out at 16 µg/mL (≈ 49.2 µM); in the test with Staphylococcus aureus [2], 8 µg/mL (≈ 24.6 µM).

As to `Oc1ccc(Nc2c3ccccc3nc3c2[nH]c2ccccc23)cc1`, the MIC in the test on Staphylococcus aureus [1] was 4 µg/mL (≈ 12.3 µM); in the test on Staphylococcus aureus [2], 2 µg/mL (≈ 6.15 µM).

For the compound `COc1ccccc1Nc1c2ccccc2nc2c1[nH]c1ccccc12`, the MIC in the test with Staphylococcus aureus [1] and against Staphylococcus aureus [2] was > 250 µg/mL throughout.

As for `COc1cccc(Nc2c3ccccc3nc3c2[nH]c2ccccc23)c1`, the MIC in the test with Staphylococcus aureus [1] and in the test on Staphylococcus aureus [2] was > 250 µg/mL throughout.

With `COc1ccc(Nc2c3ccccc3nc3c2[nH]c2ccccc23)cc1`, the results for the MIC against Staphylococcus aureus [1] and against Staphylococcus aureus [2] were 16 µg/mL (≈ 47.1 µM) and 8 µg/mL (≈ 23.6 µM), respectively.

As for `Clc1ccccc1Nc1c2ccccc2nc2c1[nH]c1ccccc12`, the MIC came out at 8 µg/mL (≈ 23.3 µM) in the test with Staphylococcus aureus [1] and 4 µg/mL (≈ 11.6 µM) against Staphylococcus aureus [2].

In the case of `Clc1cccc(Nc2c3ccccc3nc3c2[nH]c2ccccc23)c1`, the MIC against Staphylococcus aureus [1] and against Staphylococcus aureus [2] was 125 µg/mL (≈ 364 µM) each time.

As to `Clc1ccc(Nc2c3ccccc3nc3c2[nH]c2ccccc23)cc1`, the MIC with Staphylococcus aureus [1] was 8 µg/mL (≈ 23.3 µM); in the test on Staphylococcus aureus [2], 4 µg/mL (≈ 11.6 µM).

On to `Fc1ccc(Nc2c3ccccc3nc3c2[nH]c2ccccc23)cc1`, for which the minimum inhibitory concentration (MIC) against Staphylococcus aureus [1] and with Staphylococcus aureus [2] was 8 µg/mL (≈ 24.4 µM) throughout.

As for `Cc1ccc(Nc2c3ccccc3nc3c2[nH]c2ccccc23)cc1`, the MIC against Staphylococcus aureus [1] and against Staphylococcus aureus [2] was 62.5 µg/mL (≈ 193 µM) in each case.

On to `O=[N+]([O-])c1ccc(Nc2c3ccccc3nc3c2[nH]c2ccccc23)cc1`, for which the MIC against Staphylococcus aureus [1] and in the test on Staphylococcus aureus [2] was > 250 µg/mL each time.

Take `CN(c1ccc(O)cc1)c1c2ccccc2nc2c1[nH]c1ccccc12`: the MIC against Staphylococcus aureus [1] and against Staphylococcus aureus [2] was > 250 µg/mL each time.

As to `Oc1ccc(Nc2c3ccccc3nc3c2[nH]c2ccc(Cl)cc23)cc1`, the MIC is 8 µg/mL (≈ 22.2 µM) with Staphylococcus aureus [1] and 4 µg/mL (≈ 11.1 µM) in the test on Staphylococcus aureus [2].

With `COc1ccc2[nH]c3c(Nc4ccc(O)cc4)c4ccccc4nc3c2c1`, the MIC against Staphylococcus aureus [1] and against Staphylococcus aureus [2] was 2 µg/mL (≈ 5.63 µM) in each case.

With `Cc1ccc2[nH]c3c(Nc4ccc(O)cc4)c4ccccc4nc3c2c1`, the MIC is 4 µg/mL (≈ 11.8 µM) in the test on Staphylococcus aureus [1] and 2 µg/mL (≈ 5.89 µM) against Staphylococcus aureus [2].

With `Cn1c2ccccc2c2nc3ccccc3c(Nc3ccc(O)cc3)c21`, the values for the MIC against Staphylococcus aureus [1] and in the test on Staphylococcus aureus [2] were 250 µg/mL (≈ 737 µM) and 8 µg/mL (≈ 23.6 µM), respectively.

Consider `CC(=O)Oc1ccc(Nc2c3ccccc3nc3c2[nH]c2ccccc23)cc1.Cl`, for which the results for the MIC in the test with Staphylococcus aureus [1] and in the test with Staphylococcus aureus [2] were 16 µg/mL and 8 µg/mL, respectively.

On to `Oc1ccc(Nc2c3ccccc3nc3c2oc2ccccc23)cc1`, for which the MIC against Staphylococcus aureus [1] and in the test with Staphylococcus aureus [2] was 2 µg/mL (≈ 6.13 µM) each time.

In the case of `Oc1ccc(Nc2c3c(nc4ccccc24)-c2ccccc2C3)cc1`, the MIC in the test with Staphylococcus aureus [1] was 250 µg/mL (≈ 771 µM); with Staphylococcus aureus [2], > 250 µg/mL.

Consider `CC1c2ccccc2-c2nc3ccccc3c(Nc3ccc(O)cc3)c21` (stereo unspecified), for which the MIC amounted to 16 µg/mL (≈ 47.3 µM) with Staphylococcus aureus [1] and 4 µg/mL (≈ 11.8 µM) with Staphylococcus aureus [2].

As for `Cl.Oc1ccc(Nc2c3ccccc3nc3ccccc23)cc1`, the MIC is 250 µg/mL against Staphylococcus aureus [1] and > 250 µg/mL in the test on Staphylococcus aureus [2].

The term T/C denotes the result in the treated group divided by that in the control group, in per cent. `COc1cc(NS(C)(=O)=O)ccc1Nc1c2ccccc2nc2c1[nH]c1ccccc12`: the T/C in the test with P388 is on record as 300%. The results for the MIC against Staphylococcus aureus [1] and against Staphylococcus aureus [2] were 8 µg/mL (≈ 18.5 µM) and 16 µg/mL (≈ 37 µM), respectively.
